The numbers were not newly measured in patent US20050203014A1, “Composition and methods for modulating CNS activity” (Curis, Inc., priority 2003, published 2005), which cites them from elsewhere.

The test system of data set [1] is knock-out mice lacking 5-HT1A receptors. As to conditions: 5-HT1A receptor knock-out mice.
Data set [2] deals with dentate gyrus of the rat hippocampus.

In the case of `CNCCCN1c2ccccc2CCc2ccccc21` [desipramine], in data set [1], the response to antidepressant result is reported as “respond”.
With `CNCCC(Oc1ccc(C(F)(F)F)cc1)c1ccccc1` (centres unmarked) [fluoxetine], the “neurogenesis in the dentate gyrus” value in data set [2] is given as “increase neurogenesis”. In addition, the response to antidepressant result in data set [1] is recorded as “non-responsive”.
For `CN(C)CCCN1c2ccccc2CCc2ccccc21` [imipramine], the “neurogenesis in the dentate gyrus” value in data set [2] is “increase neurogenesis”. Besides, in data set [1], the response to antidepressant result was “respond”.
